Test results as given in patent US20200061054A1, “USE OF DIANHYDROGALACTITOL OR ANALOGS AND DERIVATIVES IN COMBINATION WITH A P53 MODULATOR OR A PARP INHIBITOR” (Del Mar Pharmaceuticals (BC) Ltd., priority 2017, published 2020).
“Also recorded” adds a separate entry of the source.

Legend:
A2780 cells = assay: 5-day MTT cytotoxic assay, combination of VAL-083 with non-DNA targeting agents (p53 modulators); assay type: cell-based; details: for superadditivity / synergy in combination with VAL-083 (in words): A2780 (wild-type p53), 5-day MTT, agent combined with VAL-083, FIGS. 3-5
From the text: Additive effect of [drug A+drug B]=FaA+(1−FaA)FaB
where FaA or FaB=fraction of cells affected (Fa) by drug A or B alone. Data, where appropriate, are provided as Mean±SE of N=3 or greater.

[1] = system: p53-dependent response in A2780; assay: Immunoblots 24 hr after drug exposure, p53-dependent response; assay type: cell-based; details: A2780, in combination with VAL-083 (DAG), FIGS. 6A and 6B
Method: For Western blotting, cells were lysed in EBC buffer (50 mM Tris-HCl, pH 8.0, 120 mM NaCl, 1% NP-40, and 1 mM EDTA) supplemented with phosphatase inhibitor and protease inhibitor. Cellular proteins were separated by SDS-PAGE and transferred onto PVDF membrane. After incubation with blocking buffer for 1 h, the membranes were incubated with designated primary antibodies overnight at 4° C. Then, Membranes were washed three times for 10 min and incubated with horseradish peroxidase-conjugated anti-mouse or anti-rabbit antibodies for 1-2 h. Membranes were washed with TBST three times and developed with ECL system (Pierce) according to the manufacturer's instruction.

[2] = system: Ovarian A2780 tumor cells; assay: 5-day MTT cytotoxicity, VAL-083 and/or PARP inhibitor, control siRNA cells (no BRCA1 kd); assay type: cell-based; details: A2780, in combination with dianhydrogalactitol (VAL-083)
Method: (§1) Cytotoxicity was determined by MTT assay using the standard 5-day drug exposure protocol.
(§2) Ovarian A2780 tumor cells were treated with control or BRCA1 siRNA in 6-well plates and 24 hr later were washed, typsinized and aliquoted to 96-well plates. […] After 5 days, the cells are processed for the MTT assay.

[3] = system: A2780 cells with BRCA1 knockdown; assay: 5-day MTT cytotoxicity, VAL-083 and/or PARP inhibitor, BRCA1-siRNA treated cells; details: A2780, BRCA1 siRNA vs control siRNA, based on inspection of Fa data
Method: as §1, §2

[4] = system: ovarian cancer cell lines (A2780, A2780 p53-/-, 2780CP, OVCAR10, HEY, OVCA-433); details: wild type p53, p53 knocked out and mutant p53 lines; previously shown; cited from earlier work

## Nc1cc(C(F)(F)F)c(-c2cc(N3CCOCC3)nc(N3CCOCC3)n2)cn1 [BKM120]
A2780 cells
  superadditivity / synergy in combination with VAL-083 (in words): did not result in superadditive activity

## Cc1ncc(Cl)cc1NCc1ccc(C(=O)N[C@@H](CC2CCCC2)C(=O)NC2CC2)s1 [GSK2830371, (S)-5-(((5-Chloro-2-methylpyridin-3-yl)amino)methyl)-N-(3-cyclopentyl-1-(cyclopropylamino)-1-oxopropan-2-yl)thiophene-2-carboxamide]
A2780 cells
  superadditivity / synergy in combination with VAL-083 (in words): substantial superadditivity and/or synergy
[1]
  upregulation of p53-dependent response (in words): synergistic upregulation of p53-dependent response

## Cc1sc2c(c1C)C(c1ccc(Cl)cc1)=N[C@@H](CC(=O)OC(C)(C)C)c1nnc(C)n1-2 [JQ1]
A2780 cells
  superadditivity / synergy in combination with VAL-083 (in words): did not result in superadditive activity

## C=CCn1c(=O)c2cnc(Nc3ccc(N4CCN(C)CC4)cc3)nc2n1-c1cccc(C(C)(C)O)n1 [MK1775]
A2780 cells
  superadditivity / synergy in combination with VAL-083 (in words): did not result in superadditive activity

## O=C(c1cc(Cc2n[nH]c(=O)c3ccccc23)ccc1F)N1CCN(C(=O)C2CC2)CC1 [Olaparib, olaparib]
[2]
  superadditivity of PARP inhibitor combined with VAL-083 (in words): super-additivity

## CNCc1ccc(-c2[nH]c3cc(F)cc4c3c2CCNC4=O)cc1 [Rucaparib, rucaparib]
[3]
  increase in cellular sensitivity by BRCA1 knockdown (kd): ~3.0 fold

## O[C@H]([C@H](O)[C@@H]1CO1)[C@H]1CO1 [VAL-083, dianhydrogalactitol]
[4]
  activity in ovarian cancer cell lines (in words): active in all cell lines tested

## C[C@]1(c2nc3c(C(N)=O)cccc3[nH]2)CCCN1 [Veliparib, veliparib]
[2]
  superadditivity of PARP inhibitor combined with VAL-083 (in words): not as effective

## COc1ccc(C2=N[C@@H](c3ccc(Cl)cc3)[C@@H](c3ccc(Cl)cc3)N2C(=O)N2CCNC(=O)C2)c(OC(C)C)c1 [nutlin-3a, 4-[[(4S,5R)-4,5-Bis(4-chlorophenyl)-2-(2-isopropoxy-4-methoxyphenyl)-4,5-dihydroimidazol-1-yl]carbonyl]piperazin-2-one]
A2780 cells
  superadditivity / synergy in combination with VAL-083 (in words): substantial superadditivity and/or synergy; also recorded: augmented the activity of dianhydrogalactitol
A2780 cells; A2780, nutlin-3a with VAL-083, range over ED75-ED95 (Table 3)
  combination index: 0.10-0.15
[1]
  upregulation of p53-dependent response (in words): synergistic upregulation of p53-dependent response
